Experiments:
Crocker sarcoma (Sa-180) = test: Growth inhibition of Crocker sarcoma (Sa-180) in mice; format: in vivo; details: intraperitoneally, tumor weight vs control
Method: The growth inhibition of Crocker sarcoma (Sa-180) in mice.
For these experiments three-months old mice of about 25 g in weight were used. Each was inoculated with mouse sarcoma (Sa-180) and then they were divided into groups: a group of 10 control mice, and two to four test groups of 7 mice each.
The compounds to be investigated were administered intraperitoneally in appropriate doses after previous determination of maximum tolerance dose.
The percent difference between the mean weight of tumors isolated from control and test mice was accepted as a criterion for the evaluation of antineoplastic activity of the compounds, taking into account the toxic effects.
After doses of between 0.2-0.8 mg/kg the percent of inhibition was 44-86% respectively. Similarly, for the preparation allocated the code number C-934, i.e. 1-nitro-9-(hydroxybutylamino)acridine hydrochloride, after doses of between 0.2-0.4 mg/kg percent of inhibition was 45-60 % respectively.

Acute toxicity in mice = format: in vivo; details: intraperitoneally
From the text: The acute, subacute, and long-term toxicity were studied in rats and rabbits (orally and intraperitoneally) and in mice (intraperitoneally).

Acute toxicity in rats = details: rat, in vivo, iv, intravenously
[1] = Acute toxicity in rabbits; details: rabbit, in vivo, route not given
Method: (§1) Pharmacological examination of the compound C-857 was carried out in mice, rats and rabbits. The acute, subacute, and long-term toxicity were studied in rats and rabbits (orally and intraperitoneally) and in mice (intraperitoneally). […] In the subacute toxicity studies (3 weeks) 1/60 and 1/120 of LD50 were considered; in the long-term toxicity evaluations (3 months) - 1/200 and 1/400 of LD50.

[2] = General pharmacological examination (circulatory, spasmolytic, central nervous system); format: in vivo, mice, rats and rabbits
Method: as §1
(§2) In a dose corresponding to 1/2 of LD50 it inhibits the spontaneous mobility and shortens hexobarbital anaesthesia. […] Its immunosuppresive action measured in contact allergy tests, local transplant-host reaction tests and post adjuvant multiarticular inflammation is minimal and appears only after the total dose corresponding to 1/5 of LD50.

[3] = Immunosuppressive action (contact allergy, local transplant-host reaction, post adjuvant multiarticular inflammation tests); format: in vivo; details: appears only after the total dose corresponding to 1/5 of LD50
From the text: as §2

[4] = Subacute toxicity studies (3 weeks); format: in vivo, mice, rats and rabbits
Method: as §1
About 15-40 % of total number of mice died after a dose of 1/120 of LD50. The increase in the number of leucocytes (particularly in rabbits) and decrease in relative number of lymphocytes were observed. However, no changes in the number of red cells were found. […] The preparation C-857 induced some drop of the urine level in rabbits.

[5] = Long-term toxicity evaluations (3 months); format: in vivo, mice, rats and rabbits
Method: as §1
The preparation C-857 was found not to change the spleen-liver index.
No changes of urea and creatinine content were found.

[6] = tested on: cells forming colonies in marrow; parameters: species or system mice; details: mouse, in vivo
From the text: The effect of action of compound C-857 is similar to that of Bleomicine which is non-toxic for marrow.

[7] = Vomiting effect in pigeons; format: in vivo
[8] = dose corresponding to 1/2 of LD50
[9] = intravenously, doses increasing to 20 mg/kg

Cl.O=[N+]([O-])c1cccc2nc3ccccc3c(NCCCCO)c12 [Example C-934, 1-nitro-9(4-hydroxybutylamino)acridine hydrochloride]
percent of inhibition (Crocker sarcoma (Sa-180); doses of between 0.2-0.4 mg/kg): 45-60%

Cl.O=[N+]([O-])c1cccc2nc3ccccc3c(NCCO)c12 [Example C-857, 1-nitro-9-(2-hydroxyethylamino)-acridine hydrochloride]
percent of inhibition (Crocker sarcoma (Sa-180); doses of between 0.2-0.8 mg/kg): 44-86% | maximal tolerated dose, LD10 (Acute toxicity in mice): 2.5 mg/kg | LD50 (Acute toxicity in mice; mouse, in vivo, ip): 10.6 mg/kg | LD50 (Acute toxicity in rats): 9.2 mg/kg | LD50 [1]: 11.4 mg/kg | hexobarbital anaesthesia [2, 8]: shortens | spontaneous mobility [2, 8]: inhibits | analgestic or anti-conclusive activity ([2]; in vivo): does not show any | effect on central nervous system ([2]; in vivo): weak and irregular | effect on the circulatory system [2, 9]: did not exert any significant effect | spasmolytic action [2, 9]: weak | immunosuppresive action [3]: minimal | effects observed in the subacute toxicity investigations ([4]; 3 weeks, 1/60 and 1/120 of LD50): moult, dyspndea, lack of thirst, diarrhoea, and loss of body weight | total number of mice died ([4]; mice, dose of 1/120 of LD50, subacute): 15-40% | urine level ([4]; rabbits, subacute): some drop | Liver and kidney function tests ([4]; subacute): no pathological abnormalities | histologic studies, findings ([4]; subacute): nectrotic inflammation of the liver capsule and peritoneum of intestine wall | histologic studies, interneal organs (liver, kidney, thymus gland) ([4]; subacute): No pathological abnormalities | number of red cells ([4]; subacute): no changes | relative number of lymphocytes ([4]; subacute): decrease | number of leucocytes ([4]; subacute, particularly in rabbits): increase | general changes in long-term toxicity observation ([5]; 3 months, 1/200 and 1/400 of LD50): decrease in physical activity, lack of thirst or occasional diarrhoea | local action ([5]; administrated intraperitoneally): locally irritating action | leucocytes (hematologic studies) ([5]; in rabbits and rats): leucocytosis | relative content of eosinophis ([5]; in rabbits and rats): decrease | value of hematocrit ([5]; in rabbits, hematologic studies): decrease | activity of AspAT and ALAT enzymes ([5]; in vivo): no changes | activity of alkaline phosphatase ([5]; in vivo): Slight changes | urea and creatinine content ([5]; in vivo): No changes | changes in liver and kidneys ([5]; long-term): Insignificant changes | changes in thymus gland and intestine ([5]; long-term): no changes | spleen-liver index ([5]; long-term): not to change | myclo- toxic effect on cells forming colonies in marrow [6]: not to produce myclo- toxic effect | vomiting effect [7]: did not exert vomiting effect
